Laboratory results: patent US12077503B2, “Substituted cyclic amides and their use as herbicides” (FMC CORPORATION, priority 2015, dated 2024)

What was measured:
Type in all cases: in vivo
[1] = test system: giant foxtail (Setaria faberi); assay: Test G Post-Emergence Protocol; conditions: Setaria faberi, post-emergence, 312 h, read-out: Foxtail, Giant damage rating; for pest or weed control at 15.625 g/ha: 15.625 g ai/ha, evaluated after 13 days (100=total damage to plant; 0=no damage to plant); for pest or weed control at 62.5 g/ha: 62.5 g ai/ha; for pest or weed control at 62.5 g/ha / pest or weed control at 250 g/ha: evaluated after 13 days, 100=total damage to plant, 0=no damage to plant; for pest or weed control at 250 g/ha: 250 g ai/ha
Procedure, shortened: (§1)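 Seedlings grown 8 days in soil in a glasshouse (24/16 °C day/night, 14 h light, 65% humidity) were sprayed post-emergence with compound in acetone/water 50:50 plus 0.5% Tween 20 at 15.625, 62.5 or 250 g/ha. Damage was scored after 13 days on a 0–100 scale (100 = total damage).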

[2] = test system: barnyardgrass (Echinochloa crus-galli); assay: Test G Post-Emergence Protocol; conditions: Echinochloa crus-galli, post-emergence, 312 h, read-out: Barnyardgrass damage rating; for pest or weed control at 15.625 g/ha: 15.625 g ai/ha, evaluated after 13 days (100=total damage to plant; 0=no damage to plant); for pest or weed control at 62.5 g/ha: 62.5 g ai/ha; for pest or weed control at 62.5 g/ha / pest or weed control at 250 g/ha: evaluated after 13 days, 100=total damage to plant, 0=no damage to plant; for pest or weed control at 250 g/ha: 250 g ai/ha
Procedure, shortened: as §1

[3] = test system: corn (Zea mays); assay: Test G Post-Emergence Protocol; conditions: Zea mays, post-emergence, 312 h, read-out: Corn damage rating; for plant injury at 15.625 g/ha: 15.625 g ai/ha, evaluated after 13 days (100=total damage to plant; 0=no damage to plant); for plant injury at 62.5 g/ha: 62.5 g ai/ha; for plant injury at 62.5 g/ha / plant injury at 250 g/ha: evaluated after 13 days, 100=total damage to plant, 0=no damage to plant; for plant injury at 250 g/ha: 250 g ai/ha
Procedure, shortened: as §1

[4] = test system: ivy-leaved morning glory (Ipomoea hederacea); assay: Test G Post-Emergence Protocol; conditions: Ipomoea, post-emergence, 312 h, read-out: Morningglory, Ivy-leaved damage rating; for pest or weed control at 15.625 g/ha: 15.625 g ai/ha, evaluated after 13 days (100=total damage to plant; 0=no damage to plant); for pest or weed control at 62.5 g/ha: 62.5 g ai/ha; for pest or weed control at 62.5 g/ha / pest or weed control at 250 g/ha: evaluated after 13 days, 100=total damage to plant, 0=no damage to plant; for pest or weed control at 250 g/ha: 250 g ai/ha
Procedure, shortened: as §1

[5] = test system: velvetleaf (Abutilon theophrasti); assay: Test G Post-Emergence Protocol; conditions: Abutilon theophrasti, post-emergence, 312 h, read-out: Velvetleaf damage rating; for pest or weed control at 15.625 g/ha: 15.625 g ai/ha, evaluated after 13 days (100=total damage to plant; 0=no damage to plant); for pest or weed control at 62.5 g/ha: 62.5 g ai/ha; for pest or weed control at 62.5 g/ha / pest or weed control at 250 g/ha: evaluated after 13 days, 100=total damage to plant, 0=no damage to plant; for pest or weed control at 250 g/ha: 250 g ai/ha
Procedure, shortened: as §1

[6] = test system: redroot pigweed (Amaranthus retroflexus); assay: Test G Post-Emergence Protocol; conditions: Amaranthus retroflexus, post-emergence, 312 h, read-out: Pigweed, Redroot damage rating; for pest or weed control at 15.625 g/ha: 15.625 g ai/ha, evaluated after 13 days (100=total damage to plant; 0=no damage to plant); for pest or weed control at 62.5 g/ha: 62.5 g ai/ha; for pest or weed control at 62.5 g/ha / pest or weed control at 250 g/ha: evaluated after 13 days, 100=total damage to plant, 0=no damage to plant; for pest or weed control at 250 g/ha: 250 g ai/ha
Procedure, shortened: as §1

[7] = test system: giant foxtail (Setaria faberi); assay: Test G Pre-Emergence Protocol; conditions: Setaria faberi, pre-emergence, 312 h, evaluated after 13 days; for pest or weed control at 15.625 g/ha: 15.625 g ai/ha; for pest or weed control at 15.625 g/ha / pest or weed control at 250 g/ha: read-out: Foxtail, Giant damage rating (100=total damage to plant; 0=no damage to plant); for pest or weed control at 62.5 g/ha: 62.5 g ai/ha, 100=total damage to plant, 0=no damage to plant, read-out: Foxtail, Giant damage rating; for pest or weed control at 250 g/ha: 250 g ai/ha
Procedure, shortened: (§2)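 Pre-emergence spray, 15.625/62.5/250 g/ha, vehicle acetone:water 50:50 + 0.5% Tween 20, applied 1 d after sowing. Glasshouse 24/16° C, 14 h light, 65% RH, watered twice daily. Visual damage rating at 13 d, 0–100 scale.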

[8] = test system: barnyardgrass (Echinochloa crus-galli); assay: Test G Pre-Emergence Protocol; conditions: Echinochloa crus-galli, pre-emergence, 312 h, evaluated after 13 days; for pest or weed control at 15.625 g/ha: 15.625 g ai/ha; for pest or weed control at 15.625 g/ha / pest or weed control at 250 g/ha: read-out: Barnyardgrass damage rating (100=total damage to plant; 0=no damage to plant); for pest or weed control at 62.5 g/ha: 62.5 g ai/ha, 100=total damage to plant, 0=no damage to plant, read-out: Barnyardgrass damage rating; for pest or weed control at 250 g/ha: 250 g ai/ha
Procedure, shortened: as §2

[9] = test system: corn (Zea mays); assay: Test G Pre-Emergence Protocol; conditions: Zea mays, pre-emergence, 312 h, evaluated after 13 days; for plant injury at 15.625 g/ha: 15.625 g ai/ha; for plant injury at 15.625 g/ha / plant injury at 250 g/ha: read-out: Corn damage rating (100=total damage to plant; 0=no damage to plant); for plant injury at 62.5 g/ha: 62.5 g ai/ha, 100=total damage to plant, 0=no damage to plant, read-out: Corn damage rating; for plant injury at 250 g/ha: 250 g ai/ha
Procedure, shortened: as §2

[10] = test system: ivy-leaved morning glory (Ipomoea hederacea); assay: Test G Pre-Emergence Protocol; conditions: Ipomoea, pre-emergence, 312 h, evaluated after 13 days; for pest or weed control at 15.625 g/ha: 15.625 g ai/ha; for pest or weed control at 15.625 g/ha / pest or weed control at 250 g/ha: read-out: Morningglory, Ivy-leaved damage rating (100=total damage to plant; 0=no damage to plant); for pest or weed control at 62.5 g/ha: 62.5 g ai/ha, 100=total damage to plant, 0=no damage to plant, read-out: Morningglory, Ivy-leaved damage rating; for pest or weed control at 250 g/ha: 250 g ai/ha
Procedure, shortened: as §2

[11] = test system: velvetleaf (Abutilon theophrasti); assay: Test G Pre-Emergence Protocol; conditions: Abutilon theophrasti, pre-emergence, 312 h, evaluated after 13 days; for pest or weed control at 15.625 g/ha: 15.625 g ai/ha; for pest or weed control at 15.625 g/ha / pest or weed control at 250 g/ha: read-out: Velvetleaf damage rating (100=total damage to plant; 0=no damage to plant); for pest or weed control at 62.5 g/ha: 62.5 g ai/ha, 100=total damage to plant, 0=no damage to plant, read-out: Velvetleaf damage rating; for pest or weed control at 250 g/ha: 250 g ai/ha
Procedure, shortened: as §2

[12] = test system: redroot pigweed (Amaranthus retroflexus); assay: Test G Pre-Emergence Protocol; conditions: Amaranthus retroflexus, pre-emergence, 312 h, evaluated after 13 days; for pest or weed control at 15.625 g/ha: 15.625 g ai/ha; for pest or weed control at 15.625 g/ha / pest or weed control at 250 g/ha: read-out: Pigweed, Redroot damage rating (100=total damage to plant; 0=no damage to plant); for pest or weed control at 62.5 g/ha: 62.5 g ai/ha, 100=total damage to plant, 0=no damage to plant, read-out: Pigweed, Redroot damage rating; for pest or weed control at 250 g/ha: 250 g ai/ha
Procedure, shortened: as §2

| Compound | pest or weed control at 15.625 g/ha [1] [%] | pest or weed control at 62.5 g/ha [1] [%] | pest or weed control at 15.625 g/ha [2] [%] | pest or weed control at 62.5 g/ha [2] [%] | pest or weed control at 250 g/ha [2] [%] | plant injury at 15.625 g/ha [3] [%] | plant injury at 62.5 g/ha [3] [%] | plant injury at 250 g/ha [3] [%] | pest or weed control at 15.625 g/ha [4] [%] | pest or weed control at 62.5 g/ha [4] [%] | pest or weed control at 250 g/ha [4] [%] | pest or weed control at 15.625 g/ha [5] [%] | pest or weed control at 62.5 g/ha [5] [%] | pest or weed control at 250 g/ha [5] [%] | pest or weed control at 15.625 g/ha [6] [%] | pest or weed control at 62.5 g/ha [6] [%] | pest or weed control at 250 g/ha [6] [%] | pest or weed control at 15.625 g/ha [7] [%] | pest or weed control at 62.5 g/ha [7] [%] | pest or weed control at 250 g/ha [7] [%] | other results |
| --- | --- | --- | --- | --- | --- | --- | --- | --- | --- | --- | --- | --- | --- | --- | --- | --- | --- | --- | --- | --- | --- |
| COc1ccc(C2CN(C)C(=O)C2C(=O)Nc2cccc(F)c2F)cc1C (centres unmarked) [Compound 1688] | 60 | 80 | 30 | 70 | 90 | 0 | 30 | 60 | 0 | 20 | 60 | 0 | 0 | 10 | 0 | 0 | 10 | 70 | 80 | 90 | pest or weed control at 15.625 g/ha [8]: 50%; pest or weed control at 62.5 g/ha [8]: 70%; pest or weed control at 250 g/ha [8]: 90%; plant injury at 15.625 g/ha [9]: 0%; plant injury at 62.5 g/ha [9]: 50%; plant injury at 250 g/ha [9]: 70%; pest or weed control at 15.625 g/ha [10]: 0%; pest or weed control at 62.5 g/ha [10]: 0%; pest or weed control at 250 g/ha [10]: 10%; pest or weed control at 15.625 g/ha [11]: 10%; pest or weed control at 62.5 g/ha [11]: 0%; pest or weed control at 250 g/ha [11]: 50%; pest or weed control at 15.625 g/ha [12]: 30%; pest or weed control at 62.5 g/ha [12]: 20%; pest or weed control at 250 g/ha [12]: 60% |
| COc1cc(Cl)cc(C2CN(C)C(=O)C2C(=O)Nc2cccc(F)c2F)c1 (centres unmarked) [Compound 1690] | 80 | 80 | 70 | 80 | 90 | 10 | 70 | 80 | 20 | 70 | 60 | 0 | 20 | 40 | 0 | 20 | 40 | 70 | 80 | 90 | pest or weed control at 250 g/ha [1]: 90%; pest or weed control at 15.625 g/ha [8]: 50%; pest or weed control at 62.5 g/ha [8]: 80%; pest or weed control at 250 g/ha [8]: 90%; plant injury at 15.625 g/ha [9]: 0%; plant injury at 62.5 g/ha [9]: 20%; plant injury at 250 g/ha [9]: 70%; pest or weed control at 15.625 g/ha [10]: 0%; pest or weed control at 62.5 g/ha [10]: 0%; pest or weed control at 250 g/ha [10]: 0%; pest or weed control at 15.625 g/ha [11]: 0%; pest or weed control at 62.5 g/ha [11]: 0%; pest or weed control at 250 g/ha [11]: 30%; pest or weed control at 15.625 g/ha [12]: 0%; pest or weed control at 62.5 g/ha [12]: 0%; pest or weed control at 250 g/ha [12]: 20% |
| CN1CC(c2cc(F)cc(OCC(F)(F)F)c2)C(C(=O)Nc2cccc(F)c2F)C1=O (centres unmarked) [Compound 1698] | 80 | 80 | 60 | 80 | 80 | 20 | 70 | 70 | 10 | 70 | 70 | 0 | 10 | 50 | 20 | 30 | 60 | 70 | 70 | 90 | pest or weed control at 250 g/ha [1]: 80%; pest or weed control at 15.625 g/ha [8]: 60%; pest or weed control at 62.5 g/ha [8]: 70%; pest or weed control at 250 g/ha [8]: 80%; plant injury at 15.625 g/ha [9]: 0%; plant injury at 62.5 g/ha [9]: 30%; plant injury at 250 g/ha [9]: 70%; pest or weed control at 15.625 g/ha [10]: 10%; pest or weed control at 62.5 g/ha [10]: 0%; pest or weed control at 250 g/ha [10]: 20%; pest or weed control at 15.625 g/ha [11]: 0%; pest or weed control at 62.5 g/ha [11]: 10%; pest or weed control at 250 g/ha [11]: 20%; pest or weed control at 15.625 g/ha [12]: 0%; pest or weed control at 62.5 g/ha [12]: 10%; pest or weed control at 250 g/ha [12]: 40% |
